# Molecular target: T1, ALK L1196M (Homo sapiens, UniProt Q9UM73, L1196M)
# T1 construct: purchased Thermo Fisher Scientific (Life Technologies) SelectScreen
# Assay: SelectScreen LanthaScreen
# Format: binding
# Conditions: read-out: % displacement
# Procedure, shortened: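 SelectScreen broad panel; activity (Z'LYTE, Adapta) plus binding formats. ATP: Km app for CSF1R Z'LYTE; 10 for CAMK1 Adapta. Readout = % per kinase.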
# T1 sequence (Q9UM73 19-1620 L1196M): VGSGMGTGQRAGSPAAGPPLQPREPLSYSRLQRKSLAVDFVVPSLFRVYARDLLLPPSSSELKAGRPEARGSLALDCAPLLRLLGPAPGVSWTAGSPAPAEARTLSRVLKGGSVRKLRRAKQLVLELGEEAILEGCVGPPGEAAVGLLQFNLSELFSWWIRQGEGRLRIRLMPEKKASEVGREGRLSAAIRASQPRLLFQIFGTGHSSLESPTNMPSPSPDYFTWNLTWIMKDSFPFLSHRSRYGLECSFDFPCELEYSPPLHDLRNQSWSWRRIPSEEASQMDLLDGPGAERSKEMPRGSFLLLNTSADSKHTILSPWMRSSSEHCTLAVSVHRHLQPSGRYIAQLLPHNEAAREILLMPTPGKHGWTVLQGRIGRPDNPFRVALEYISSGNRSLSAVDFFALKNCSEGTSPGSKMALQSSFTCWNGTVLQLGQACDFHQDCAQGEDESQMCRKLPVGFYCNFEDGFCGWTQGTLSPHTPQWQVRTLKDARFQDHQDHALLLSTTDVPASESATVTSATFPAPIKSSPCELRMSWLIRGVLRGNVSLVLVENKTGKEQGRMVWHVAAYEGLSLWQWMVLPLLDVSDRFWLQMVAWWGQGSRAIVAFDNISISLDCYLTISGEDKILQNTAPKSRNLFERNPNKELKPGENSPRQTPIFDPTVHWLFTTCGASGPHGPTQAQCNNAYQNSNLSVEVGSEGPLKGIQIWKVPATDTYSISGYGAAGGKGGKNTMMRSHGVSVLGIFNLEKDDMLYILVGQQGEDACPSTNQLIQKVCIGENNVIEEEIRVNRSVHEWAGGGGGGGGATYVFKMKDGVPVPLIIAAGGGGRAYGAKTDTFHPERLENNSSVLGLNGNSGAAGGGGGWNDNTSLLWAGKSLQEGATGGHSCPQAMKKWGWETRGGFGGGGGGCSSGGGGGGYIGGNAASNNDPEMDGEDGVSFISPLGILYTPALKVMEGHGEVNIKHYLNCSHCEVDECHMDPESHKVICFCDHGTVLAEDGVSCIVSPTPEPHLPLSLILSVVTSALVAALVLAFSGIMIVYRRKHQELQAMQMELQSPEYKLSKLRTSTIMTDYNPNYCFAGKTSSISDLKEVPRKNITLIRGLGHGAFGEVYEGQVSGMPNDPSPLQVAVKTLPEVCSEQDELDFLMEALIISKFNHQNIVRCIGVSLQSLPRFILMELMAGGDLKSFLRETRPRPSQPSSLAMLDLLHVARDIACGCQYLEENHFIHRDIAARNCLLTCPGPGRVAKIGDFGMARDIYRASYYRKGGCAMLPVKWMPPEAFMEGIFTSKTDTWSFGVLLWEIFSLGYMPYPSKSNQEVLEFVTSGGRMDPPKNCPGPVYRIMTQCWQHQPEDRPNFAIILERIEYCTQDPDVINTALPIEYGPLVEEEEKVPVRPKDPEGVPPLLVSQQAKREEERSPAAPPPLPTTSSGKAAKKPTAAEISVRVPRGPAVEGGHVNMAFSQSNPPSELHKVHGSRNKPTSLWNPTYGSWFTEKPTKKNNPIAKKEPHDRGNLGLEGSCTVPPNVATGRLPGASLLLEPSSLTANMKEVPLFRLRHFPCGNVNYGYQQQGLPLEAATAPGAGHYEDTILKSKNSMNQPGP
structure (smiles),measurement,value
CN(C(=O)CN1CCOCC1)c1ccc2sc3c(-c4cccc5c(=O)cc(N6CC7CCC(C6)O7)oc45)cccc3c2c1 [NU5455],inhibition at 1 µM,-1.7%

# — publication PMC6934184, “Selective DNA-PKcs inhibition extends the therapeutic index of localized radiotherapy and chemotherapy” (The Journal of Clinical Investigation, 2019)
